Where “and” joins values, the source holds several entries; their conditions need not be identical. Equal values may be shown once. Read-outs that look alike come from different tables or passages of the source.
Legend:
[1] = system: P. falciparum female gametocytes; assay: P. falciparum female gametogenesis assay (Pf FGAA); conditions: 1: YES; 0: NO
[2] = system: P. falciparum male gametocytes; assay: P. falciparum Dual Gamete Formation Assay (Pf DGFA), male readout; conditions: for Pf DGFA Male, Expt 1 / Pf DGFA Male, Expt 2 / Pf DGFA Male, Expt 3 / Pf DGFA Male, Expt 4: 1µM; for % inhibition Pf DGFA (male) 1 μM (±SEM): mean of four experiments; for inhibition at 1 µM: Plasmodium falciparum, read-out: % inhibition Pf DGFA (male) 1 μM (±SEM), 1 μM, mean of four experiments
[3] = system: P. berghei ookinete development; conditions: for IC50: read-out: IC50 Pb ODA, dose response, at least triplicate
[4] = system: 3D7-strain P. falciparum asexual parasites; assay: P. falciparum asexual growth inhibition assay (Pf GIA); format: cell-based, Plasmodium falciparum; conditions: Plasmodium falciparum
Method in brief: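 Read-out was lactate dehydrogenase activity measured by absorbance at 650 nm after freezing and thawing, against 50 μM chloroquine and DMSO controls. Before that, asexual 3D7 cultures (0.25% parasitemia, 2% hematocrit) had 72 h dose-response compound exposure at 37°C in 5% CO2/5% O2/90% N2; three independent replicates averaged.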

[5] = system: P. berghei ookinete development; assay: microbe, parasite or virus in culture; conditions: Plasmodium berghei
HepG2 cells [6] = assay: HepG2 cytotoxicity assay; conditions: for IC50: Homo sapiens, HepG2, 48 h, read-out: IC50 HepG2; for HepG2 cytoxicity: value reported with the Pb ODA screen
Method in brief: (§1)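 Cells at 2,500 per well in MEM with 10% fetal bovine serum and 1% NEAA were exposed to test compounds for 48 h at 37°C, 5% CO2. Viability was read by fluorescence, with percent inhibition calculated against 50 μM doxorubicin (positive) and DMSO (negative) controls.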

[7] = system: P. falciparum female gametocytes; set-up: method as in Miguel-Blanco et al 2017; conditions: ref Miguel-Blanco et al 2017, read-out: Pf FGAA IC50, cited from earlier work
HepG2 cells [8] = conditions: cited from earlier work
[9] = system: P. berghei oocyst intensity in Anopheles stephensi mosquitoes; assay: P. berghei standard membrane feeding assay (Pb SMFA); conditions: for % inhibition Pb SMFA 1 μM (±SEM): inhibition of oocyst intensity at 1 μM; for inhibition at 1 µM: read-out: % inhibition Pb SMFA 1 μM (±SEM), inhibition of oocyst intensity at 1 μM
[10] = system: P. falciparum female gametocytes; assay: P. falciparum Dual Gamete Formation Assay (Pf DGFA), female readout; conditions: for Pf DGFA Female, Expt 1 / Pf DGFA Female, Expt 2 / Pf DGFA Female, Expt 3 / Pf DGFA Female, Expt 4: 1µM; for % inhibition Pf DGFA (female) 1 μM (±SEM): mean of four experiments; for inhibition at 1 µM: Plasmodium falciparum, read-out: % inhibition Pf DGFA (female) 1 μM (±SEM), 1 μM, mean of four experiments
HepG2 cytotoxicity assay = conditions: human, HepG2 cells
Method in brief: as §1

[11] = system: P. falciparum late stage (stages IV-V) gametocytes; set-up: method as in Almela et al 2016; conditions: TCAMS screen comparison; ref Almela et al 2016; read-out: Pf GCT ATP IC50; cited from earlier work
[12] = system: P. falciparum male gametogenesis; set-up: method as in Colmenarejo et al., 2018; conditions: 2 μM; ref Colmenarejo et al., 2018; cited from earlier work
[13] = system: P. falciparum oocyst intensity; set-up: method as in Colmenarejo et al., 2018; conditions: 2 μM; ref Colmenarejo et al., 2018; cited from earlier work
[14] = 3D7, dose response confirmation, read-out: Pf asexual growth inhibition assays IC50
[15] = 3D7, 72 h, LDH readout, read-out: IC50 Pf Asexual
[16] = read-out: % inhibition, Replicate A
[17] = read-out: % inhibition, Replicate B
[18] = read-out: IC50 Pb ODA, dose response, at least triplicate
[19] = read-out: Pb ODA IC50, this manuscript
[20] = HepG2 values of the three screens unified
[21] = read-out: Pb Ookinete development assay IC50 (µM), dose response confirmation
[22] = read-out: Pb ODA IC50 (µM), this manuscript
[23] = value reported with the Pf FGAA screen, ref Miguel-Blanco et al 2017
[24] = value reported with the Pf GCT ATP screen, ref Almela et al 2016

SMILES | Pf DGFA Male, Expt 1 [2] | Pf DGFA Male, Expt 2 [2] | Pf DGFA Male, Expt 3 [2] | Pf DGFA Male, Expt 4 [2] | % inhibition Pf DGFA (male) 1 μM (±SEM) [2] [%] | inhibition at 1 µM [2] [%] | IC50 [3] | IC50 [4, 14] [nM] | IC50 [4, 15] [nM] | inhibition at 1 µM [5, 16] [%] | inhibition at 1 µM [5, 17] [%] | IC50 [5, 18] [µM] | IC50 (HepG2 cells [6]) [nM] | inhibition at 1 µM [9] [%] | Pf DGFA Female, Expt 1 [10] | Pf DGFA Female, Expt 2 [10] | Pf DGFA Female, Expt 3 [10] | Pf DGFA Female, Expt 4 [10] | inhibition at 1 µM [10] [%] | IC50 at 48 h (HepG2 cytotoxicity assay) [nM] | other results
Cn1c(Sc2ncnc3sccc23)nc2ccccc21 [TCMDC-124514] | 96.96 | 90.56 | 99.40 | 95.50 | 95.61 | 95.6 | > 250 nM and 397 nM | 187 | 188 | 109 | 101 | 0.398 | > 100000 | 9.07 | 99.03 | 87.98 | 99.79 | 75.95 | 90.7 |  | Is compound selective in assay? Pf FGAA active? [1]: 1 (1: YES); Is compound selective in assay? Pb ODA active? ([3]; 1: YES, 0: NO): 1 (1: YES); IC50 [5, 19]: 0.4 µM; Unified cytotox (HepG2 cells [6]; [20]): 100.00 µM; IC50 [7]: 1250 nM; HepG2 cytoxicity (Pf FGAA screen) (HepG2 cells [8]; HepG2, ref Miguel-Blanco et al 2017): >100 µM; % inhibition Pb SMFA 1 μM (±SEM) [9]: 9.1%; % inhibition Pf DGFA (female) 1 μM (±SEM) [10]: 90.69%
NC(=O)c1ccccc1Nc1nc(Nc2cccc(N3CCN(CCO)CC3)c2)ncc1Cl [TCMDC-134114] | 100.00 | 99.14 | 99.70 | 100.00 | 99.71 |  |  | 22 | 21.5 | 106 | 96.7 | < 0.06 | 41700 | 97 | 18.27 | -46.13 | -5.85 | -25.02 | -14.7 | 41700 | Assay tox ratio Pb ODA (red: <10-fold selectivity; green: >10-fold) [3]: 747.08; Is compound selective in assay? Pb ODA active? [3]: 1 (key: 1: YES; 0: NO); IC50 ([5]; read-out: Pb ODA (this manuscript) IC50 (µM), P. berghei ookinete development assay, this manuscript): 0.0558 µM; IC50 [5, 21]: 0.056 µM; Pb ODA (this manuscript) HepG2 cytoxicity (HepG2 cells [6]; HepG2 cytotoxicity listed with the Pb ODA data set (this manuscript)): 41.69 µM
COc1ccc2ncc(F)c(CCN3CCC(NC(=O)c4ccc5c(n4)NC(=O)CS5)C(O)C3)c2n1 (stereo not shown) [TCMDC-135907] | 27.09 | -8.08 | -8.79 | 59.50 |  | 17.4 | 381 nM | 2020 | 2020 | 99.8 | 69.5 | > 0.25 | 42200 | 56.2 | 25.41 | -9.01 | -10.92 | -26.87 |  | 42200 | Is compound selective in assay? Pb ODA active? ([3]; 1: YES, 0: NO): 1 (1: YES); IC50 [5, 19]: 0.38 µM; HepG2 cytoxicity (Pb ODA, this manuscript) (HepG2 cells [6]; HepG2, this manuscript): 42.17 µM; Unified cytotox (HepG2 cells [6]; [20]): 42.17 µM
CC[C@H]1CN2CCc3cc(OC)c(OC)cc3[C@@H]2C[C@@H]1C[C@H]1NCCc2cc(OC)c(OC)cc21 [TCMDC-125531] |  |  |  |  |  |  |  | 72 |  | 93.2 | 121 |  |  |  |  |  |  |  |  | 1550 | IC50 [11]: 350 nM; IC50 [5, 22]: 0.21 µM; IC50 [5, 21]: 0.213 µM; Unified cytotox (HepG2 cells [6]; human): 10.78 µM; HepG2 cytoxicity (HepG2 cells [6]; this manuscript): 1.55 µM; IC50 ([7]; TCAMS screen comparison): 2730 nM; HepG2 cytoxicity (HepG2 cells [8]; [23]): 9.77 µM; HepG2 cytoxicity (HepG2 cells [8]; [24]): 21.03 µM
CCC1CN2CCc3cc(OC)c(OC)cc3C2CC1CC1NCCc2cc(OC)c(OC)cc21 (stereo not shown) [TCMDC-125849] | 77.97 | 55.40 | 60.36 | 68.13 | 65.46 | 65.5 | > 250 nM and 268 nM | 42 | 41.9 | 118 | 98.5 | 0.268 | 24000 | 71.4 | 99.68 | 99.20 | 99.79 | 98.70 | 99.3 | 24000 | inhibition of male gametogenesis in P. falciparum [12]: total inhibition; IC50 [11]: 120 nM; IC50 [5, 22]: 0.27 µM; Unified cytotox (HepG2 cells [6]; human): 14.64 µM; HepG2 cytoxicity (HepG2 cells [6]; this manuscript): 23.99 µM; inhibition of oocyst intensity in P. falciparum [13]: 100%; IC50 ([7]; TCAMS screen comparison): 1820 nM; HepG2 cytoxicity (HepG2 cells [8]; [23]): 2.24 µM; HepG2 cytoxicity (HepG2 cells [8]; [24]): 17.68 µM; % inhibition Pb SMFA 1 μM (±SEM) [9]: 71.4%; % inhibition Pf DGFA (female) 1 μM (±SEM) [10]: 99.34%
